Measured values taken from the supplement of paper PMC8617591.

Experiments:
[1] = tested on: Mycobacterium tuberculosis Erdman (autoluminescent); experiment: total FIC90 (Loewe) at 90% inhibition, three-drug combination (log2); higher = more antagonistic
Method: (§1)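 DiaMOND equipotent three-drug combination dose responses (10 doses, 1.5- or 2-fold spacing, centred on IC90) against autoluminescent M. tuberculosis Erdman in 8 in vitro models. Read-out is OD600, or luminescence for the intracellular and dormancy models, normalised to untreated wells. Hill-fit Einf, AUC25 and GRinf are potency metrics; FIC50 and FIC90 are total Loewe fractional inhibitory concentrations as log2 (negative = synergy).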

[2] = tested on: Mycobacterium tuberculosis Erdman (autoluminescent); experiment: Einf, fitted maximum growth inhibition of three-drug combination (fraction); higher = stronger maximal inhibition
Method: as §1

[3] = tested on: Mycobacterium tuberculosis Erdman (autoluminescent); experiment: GRinf, maximum normalised growth rate inhibition (three-drug combination) (unitless (-1 to 1)); higher = less effect (negative = killing)
Method: as §1

[4] = tested on: Mycobacterium tuberculosis Erdman (autoluminescent); experiment: AUC25, normalised area under dose response up to IC25 (three-drug combination) (fraction (0-1)); higher = more potent at low dose
Method: as §1

[5] = tested on: Mycobacterium tuberculosis Erdman (autoluminescent); experiment: total FIC50 (Loewe) at 50% inhibition, three-drug combination (log2); higher = more antagonistic
Method: as §1

NNC(=O)c1ccncc1 [isoniazid] + CO[C@H]1/C=C/O[C@@]2(C)Oc3c(C)c(O)c4c(O)c(c(/C=N/N5CCN(C6CCCC6)CC5)c(O)c4c3C2=O)NC(=O)/C(C)=C\C=C\[C@H](C)[C@H](O)[C@@H](C)[C@@H](O)[C@@H](C)[C@H](OC(C)=O)[C@@H]1C [rifapentine] + CO[C@H]1/C=C/O[C@@]2(C)Oc3c(C)c(O)c4c(O)c(c(/C=N/N5CCN(C)CC5)c(O)c4c3C2=O)NC(=O)/C(C)=C\C=C\[C@H](C)[C@H](O)[C@@H](C)[C@@H](O)[C@@H](C)[C@H](OC(C)=O)[C@@H]1C [rifampicin]
Conditions | AUC25, [4] | Einf, [2] | GRinf, [3] | total FIC50, [5] | total FIC90, [1]
in vitro model: acidic pH 5.7, time point: constant (~7 days, model-specific) | 0.0821 | 0.87 | -0.0825 | 0.753 | –
in vitro model: acidic pH 5.7, time point: terminal (~4-5 doublings, model-specific) | 0.0679 | 0.98 | -0.129 | 0.528 | 0.407
in vitro model: intracellular J774, time point: constant = terminal | – | 0.936 | -0.1 | – | 0.217

Conditions | AUC25, [4] | Einf, [2] | GRinf, [3] | total FIC50, [5] | total FIC90, [1]
in vitro model: butyrate, time point: constant (~7 days, model-specific) | 0.104 | 0.922 | 0.00523 | 0.263 | 0.467
in vitro model: butyrate, time point: terminal (~4-5 doublings, model-specific) | 0.0874 | 0.967 | 0.000636 | 0.203 | 0.338
in vitro model: cholesterol 0.05 mM, time point: constant (~7 days, model-specific) | 0.112 | 0.62 | 0.0102 | 0.806 | –
in vitro model: cholesterol 0.05 mM, time point: terminal (~4-5 doublings, model-specific) | 0.0884 | 0.883 | -0.129 | 0.447 | -0.00675
in vitro model: cholesterol-high 0.2 mM, time point: constant (~7 days, model-specific) | 0.068 | 0.913 | -0.352 | 0.176 | –
in vitro model: cholesterol-high 0.2 mM, time point: terminal (~4-5 doublings, model-specific) | 0.055 | 0.998 | -0.762 | 0.475 | 0.196
in vitro model: dormancy (butyrate + nitrate, low O2), time point: constant (~7 days, model-specific) | 0.0473 | 0.859 | 0.242 | -0.0392 | -0.445
in vitro model: dormancy (butyrate + nitrate, low O2), time point: terminal (~4-5 doublings, model-specific) | 0.0455 | 0.984 | -0.157 | -0.192 | -0.199
in vitro model: standard 7H9 glycerol, time point: constant = terminal | 0.0666 | 0.906 | 0.0924 | 0.523 | –
in vitro model: valerate, time point: constant (~7 days, model-specific) | 0.0385 | 0.881 | -0.0115 | 0.498 | –
in vitro model: valerate, time point: terminal (~4-5 doublings, model-specific) | 0.0262 | 0.941 | 0.00295 | 0.354 | 0.159

NNC(=O)c1ccncc1 [isoniazid] + CC(=O)NC[C@H]1CN(c2ccc(N3CCOCC3)c(F)c2)C(=O)O1 [linezolid] + CO[C@H]1/C=C/O[C@@]2(C)Oc3c(C)c(O)c4c(O)c(c(/C=N/N5CCN(C6CCCC6)CC5)c(O)c4c3C2=O)NC(=O)/C(C)=C\C=C\[C@H](C)[C@H](O)[C@@H](C)[C@@H](O)[C@@H](C)[C@H](OC(C)=O)[C@@H]1C [rifapentine]
Conditions | AUC25, [4] | Einf, [2] | GRinf, [3] | total FIC50, [5] | total FIC90, [1]
in vitro model: acidic pH 5.7, time point: constant (~7 days, model-specific) | 0.0908 | 0.853 | -0.0954 | 0.653 | –
in vitro model: acidic pH 5.7, time point: terminal (~4-5 doublings, model-specific) | 0.0757 | 0.977 | -0.138 | 0.526 | 0.636
in vitro model: intracellular J774, time point: constant = terminal | – | 0.946 | -0.138 | – | 0.00443

Conditions | AUC25, [4] | Einf, [2] | GRinf, [3] | total FIC50, [5] | total FIC90, [1]
in vitro model: butyrate, time point: constant (~7 days, model-specific) | 0.0823 | 0.894 | 0.1 | 0.461 | 1.07
in vitro model: butyrate, time point: terminal (~4-5 doublings, model-specific) | 0.0501 | 0.94 | 0.0909 | 0.377 | 0.0682
in vitro model: cholesterol 0.05 mM, time point: constant (~7 days, model-specific) | 0.153 | 0.735 | -0.233 | 0.774 | –
in vitro model: cholesterol 0.05 mM, time point: terminal (~4-5 doublings, model-specific) | 0.125 | 0.921 | -0.273 | 0.542 | 0.792
in vitro model: cholesterol-high 0.2 mM, time point: constant (~7 days, model-specific) | 0.0853 | 0.833 | -0.0945 | 0.52 | –
in vitro model: cholesterol-high 0.2 mM, time point: terminal (~4-5 doublings, model-specific) | 0.093 | 1 | -0.883 | 0.739 | 0.834
in vitro model: dormancy (butyrate + nitrate, low O2), time point: constant (~7 days, model-specific) | 0.0503 | 0.879 | 0.222 | 1.15 | 0.705
in vitro model: dormancy (butyrate + nitrate, low O2), time point: terminal (~4-5 doublings, model-specific) | 0.0276 | 0.984 | -0.167 | 0.72 | 0.385
in vitro model: standard 7H9 glycerol, time point: constant = terminal | 0.0681 | 0.902 | 0.155 | 0.53 | 1.15
in vitro model: valerate, time point: constant (~7 days, model-specific) | 0.0749 | 0.839 | 0.0814 | 0.038 | –
in vitro model: valerate, time point: terminal (~4-5 doublings, model-specific) | 0.0444 | 0.931 | 0.0271 | 0.299 | 0.267

NNC(=O)c1ccncc1 [isoniazid] + O=[N+]([O-])c1cn2c(n1)OC[C@@H](OCc1ccc(OC(F)(F)F)cc1)C2 [pretomanid] + CO[C@H]1/C=C/O[C@@]2(C)Oc3c(C)c(O)c4c(O)c(c(/C=N/N5CCN(C)CC5)c(O)c4c3C2=O)NC(=O)/C(C)=C\C=C\[C@H](C)[C@H](O)[C@@H](C)[C@@H](O)[C@@H](C)[C@H](OC(C)=O)[C@@H]1C [rifampicin]
Conditions | AUC25, [4] | Einf, [2] | GRinf, [3] | total FIC50, [5] | total FIC90, [1]
in vitro model: acidic pH 5.7, time point: constant (~7 days, model-specific) | 0.0775 | 0.859 | -0.11 | 3.95 | –
in vitro model: acidic pH 5.7, time point: terminal (~4-5 doublings, model-specific) | 0.0694 | 0.984 | -0.197 | 3.6 | 3.63
in vitro model: intracellular J774, time point: constant = terminal | – | 0.984 | -0.312 | – | -0.077

Conditions | AUC25, [4] | Einf, [2] | GRinf, [3] | total FIC50, [5] | total FIC90, [1]
in vitro model: butyrate, time point: constant (~7 days, model-specific) | 0.0916 | 0.923 | 0.00511 | 2.61 | 0.589
in vitro model: butyrate, time point: terminal (~4-5 doublings, model-specific) | 0.0722 | 0.963 | 0.0279 | 2.48 | 2.45
in vitro model: cholesterol 0.05 mM, time point: constant (~7 days, model-specific) | 0.0953 | 0.655 | -0.0786 | 1.31 | –
in vitro model: cholesterol 0.05 mM, time point: terminal (~4-5 doublings, model-specific) | 0.0868 | 0.899 | -0.194 | 1.53 | 0.957
in vitro model: cholesterol-high 0.2 mM, time point: constant (~7 days, model-specific) | 0.0449 | 0.872 | -0.204 | 0.405 | –
in vitro model: cholesterol-high 0.2 mM, time point: terminal (~4-5 doublings, model-specific) | 0.0391 | 0.977 | -0.604 | 0.794 | 0.324
in vitro model: dormancy (butyrate + nitrate, low O2), time point: constant (~7 days, model-specific) | 0.066 | 0.857 | 0.266 | 2.35 | 2.04
in vitro model: dormancy (butyrate + nitrate, low O2), time point: terminal (~4-5 doublings, model-specific) | 0.0408 | 0.974 | -0.0694 | 2.21 | 2.12
in vitro model: standard 7H9 glycerol, time point: constant = terminal | 0.0661 | 0.893 | 0.151 | 5.01 | 3.36
in vitro model: valerate, time point: constant (~7 days, model-specific) | 0.0615 | 0.863 | 0.000666 | 3.28 | –
in vitro model: valerate, time point: terminal (~4-5 doublings, model-specific) | 0.0349 | 0.939 | 0.0355 | 3.03 | 1.97
